Results on 51 compounds are retold here after ChEMBL document CHEMBL3046293, “Fungicidal Activities of -Methoxyphenylacetic Acid Derivatives” (2002).

Each structure is given as a SMILES string.

Common to all, as to type: functional
The subject of assay [1] is Pyricularia oryzae. The assay is described as follows: Fungicidal activity against Magnaporthe oryzae Cav. race 003 assessed as rice blast disease control at 500 ppm treated 24 hr before inoculation by preventive manner.
The subject of assay [2] is Botrytis cinerea. Nature of the assay: Fungicidal activity against Botryotinia fuckeliana assessed as cucumber gray mold disease control at 500 ppm treated 24 hr before inoculation by preventive manner.
The subject of assay [3] is Podosphaera fuliginea. Nature of the assay: Fungicidal activity against Podosphaera fuliginea assessed as cucumber powdery mildew disease control at 31.3 ppm treated 24 hr before inoculation by preventive manner.
For assay [4], the system named is Podosphaera fuliginea. Nature of the assay: Fungicidal activity against Podosphaera fuliginea assessed as cucumber powdery mildew disease control at 500 ppm treated 24 hr before inoculation by preventive manner.
Assay [5] concerns Podosphaera fuliginea. The assay is described as follows: Fungicidal activity against Podosphaera fuliginea assessed as cucumber powdery mildew disease control at 7.8 ppm treated 24 hr before inoculation by preventive manner.
Assay [6] deals with Podosphaera fuliginea. The assay is described as follows: Fungicidal activity against Podosphaera fuliginea assessed as cucumber powdery mildew disease control at 125 ppm treated 24 hr before inoculation by preventive manner.
For assay [7], the system named is Botrytis cinerea. The assay is described as follows: Fungicidal activity against Botryotinia fuckeliana assessed as cucumber gray mold disease control at 7.8 ppm treated 24 hr before inoculation by preventive manner.
Assay [8] concerns Pyricularia oryzae. Nature of the assay: Fungicidal activity against Magnaporthe oryzae Cav. race 003 assessed as rice blast disease control at 125 ppm treated 24 hr before inoculation by preventive manner.

Consider `CNC(=O)C(OC)c1cccc(COc2cc(Cl)cc(Cl)c2)c1` (stereo not drawn), for which the Activity in assay [1] is listed as under 90%; in assay [2], under 50%; in assay [3], 90%.
With `CNC(=O)C(OC)c1cccc(Oc2ccc(C)cc2)c1` (stereo not drawn), the Activity in assay [4] is recorded as under 90%; in assay [1], under 90%; in assay [2], under 50%.
`COC(=O)C(OC)c1cccc(Oc2ccc(C)c(C)c2)c1` (stereo not drawn): the Activity in assay [4] was 90%; in assay [1] it was under 90%; in assay [2], under 50%.
On the same counts, the results for `CNC(=O)C(OC)c1cccc(Oc2ccc(Cl)cc2)c1` (stereo not drawn) are under 90%, under 90% and under 50%.
On the same counts, the results for `COC(=O)C(OC)c1cccc(Oc2cc(C)cc(C)c2)c1` (stereo not drawn) are 90%, under 90% and under 50%.
For the compound `COC(=O)C(OC)c1cccc(COc2ccc(Cl)cc2Cl)c1` (stereo not drawn), the Activity in assay [1] is under 90%; in assay [2], under 50%; in assay [5] it was 90%.
Turning to `CNC(=O)C(OC)c1cccc(OCc2ccc(Cl)cc2)c1` (stereo not drawn), the Activity in assay [4] is under 90%; in assay [1], under 90%; in assay [2], under 50%.
With `CNC(=O)C(OC)c1cccc(COc2cccc(C)c2)c1` (stereo not drawn), the Activity is 90% in assay [1], 90% in assay [6] and under 50% in assay [2].
Turning to `CNC(=O)C(OC)c1cccc(COc2cc(C)ccc2Cl)c1` (stereo not drawn), the Activity in assay [7] is reported as 50%; in assay [8] it was 90%; in assay [5], 90%.
As for `COC(=O)C(OC)c1cccc(COc2ccccc2Cl)c1` (stereo not drawn), the values for the Activity in assay [6], in assay [2] and in assay [8] were 90%, 50% and 90%, respectively.
Regarding `CNC(=O)C(OC)c1cccc(COc2ccccc2Cl)c1` (stereo not drawn), the Activity in assay [1] is listed as 90%; in assay [2] it was under 50%; in assay [5], 90%.
Turning to `CCCCOC(C(=O)NC)c1cccc(COc2cc(C)ccc2C)c1` (stereo not drawn), the Activity is on record as under 90% in assay [1], under 50% in assay [2] and 90% in assay [3].
Take `CNC(=O)C(OC)c1cccc(COC(=O)c2ccc(Cl)cc2)c1` (stereo not drawn): the values for the Activity in assay [4], in assay [1] and in assay [2] were under 90%, under 90% and under 50%, respectively.
Regarding `COC(=O)C(OC)c1cccc(COc2ccc(Cl)cc2)c1` (stereo not drawn), the Activity in assay [1] is under 90%; in assay [6], 90%; in assay [2] it was under 50%.
On the same counts, the results for `COC(=O)C(OC)c1cccc(COc2cccc(C)c2)c1` (stereo not drawn) are under 90%, 90% and under 50%.
With `CCOC(C(=O)NC)c1cccc(COc2cc(C)ccc2C)c1` (stereo not drawn), the Activity in assay [1] was under 90%; in assay [2] it was under 50%; in assay [5], 90%.
As to `COC(=O)C(OC)c1cccc(COc2ccc(C)cc2C)c1` (stereo not drawn), the values for the Activity in assay [4], in assay [1] and in assay [2] were under 90%, 90% and 50%, respectively.
For `CNC(=O)C(OC)c1cccc(Oc2ccccc2)c1` (stereo not drawn) the same measures were under 90%, under 90% and under 50%.
Take `CNC(=O)C(OC)c1cccc(COc2ccccc2)c1` (stereo not drawn): the Activity in assay [1] is given as under 90%; in assay [6] it was 90%; in assay [2], 50%.
As for `COC(C(=O)O)c1cccc(COc2cc(C)ccc2C)c1` (stereo not drawn), the values for the Activity in assay [1], in assay [2] and in assay [5] were 90%, under 50% and 90%, respectively.
On to `CNC(=O)C(OC)c1cccc(COc2ccc(Cl)cc2)c1` (stereo not drawn), for which the results for the Activity in assay [1], in assay [2] and in assay [3] were under 90%, under 50% and 90%, respectively.
Regarding `CNC(=O)C(OC)c1cccc(COc2ccc(C)cc2Cl)c1` (stereo not drawn), the Activity is reported as 50% in assay [2], 90% in assay [8] and 90% in assay [5].
`CNC(=O)C(OC)c1cccc(COc2ccc(Cl)cc2Cl)c1` (stereo not drawn): the Activity in assay [1] was under 90%; in assay [2], under 50%; in assay [5], 90%.
For the compound `CNC(=O)C(OC)c1cccc(COc2cccc(C)c2C)c1` (stereo not drawn), the Activity in assay [7] is 50%; in assay [8], 90%; in assay [5], 90%.
As for `COC(C(N)=O)c1cccc(COc2cc(C)ccc2C)c1` (stereo not drawn), the values for the Activity in assay [1], in assay [2] and in assay [3] were 90%, under 50% and 90%, respectively.
Take `CNC(=O)C(OC)c1cccc(Oc2cc(C)cc(C)c2)c1` (stereo not drawn): the Activity in assay [1] was under 90%; in assay [2] it was under 50%; in assay [3] it was 90%.
Regarding `CCc1ccccc1OCc1cccc(C(OC)C(=O)OC)c1` (stereo not drawn), the Activity in assay [4] was under 90%; in assay [1] it was under 90%; in assay [2], under 50%.
For `COC(C(=O)SC)c1cccc(COc2cc(C)ccc2C)c1` (stereo not drawn), the figures for the Activity in assay [4], in assay [1] and in assay [2] were under 90%, under 90% and under 50%, respectively.
`CNC(=O)C(OC(C)=O)c1cccc(COc2cc(C)ccc2C)c1` (stereo not drawn): the Activity in assay [4] is recorded as under 90%; in assay [1], under 90%; in assay [2] it was under 50%.
Turning to `CNC(=O)C(OC)c1cccc(CSc2cc(C)ccc2C)c1` (stereo not drawn), the Activity in assay [4] is reported as 90%; in assay [1], under 90%; in assay [2], under 50%.
On the same counts, the results for `CNC(=O)C(OC)c1cccc(COc2c(C)cccc2C)c1` (stereo not drawn) are under 90%, under 90% and under 50%.
For `CNC(=O)C(OC)c1cccc(Oc2cccc(C)c2)c1` (stereo not drawn) the same measures were under 90%, under 90% and under 50%.
As for `CCc1ccccc1OCc1cccc(C(OC)C(=O)NC)c1` (stereo not drawn), the Activity in assay [2] stood at 50%; in assay [8] it was 90%; in assay [5], 90%.
Consider `CNC(=O)C(OC)c1cccc(COc2ccc(C)cc2OC)c1` (stereo not drawn), for which the Activity in assay [4] is listed as under 90%; in assay [1], under 90%; in assay [2], 50%.
As for `COC(=O)C(OC)c1cccc(COc2ccc(C)cc2)c1` (stereo not drawn), the results for the Activity in assay [1], in assay [6] and in assay [2] were under 90%, 90% and under 50%, respectively.
With `CNC(=O)C(OC)c1cccc(Oc2ccc(C)c(C)c2)c1` (stereo not drawn), the Activity in assay [1] is listed as under 90%; in assay [6], 90%; in assay [2] it was under 50%.
For `CNC(=O)C(OC)c1cccc(COc2ccccc2OC)c1` (stereo not drawn), the Activity is given as under 90% in assay [4], under 90% in assay [1] and under 50% in assay [2].
As for `COC(=O)C(OC)c1cccc(COc2cc(C)ccc2C)c1` (stereo not drawn), the Activity in assay [4] is given as under 90%; in assay [2] it was 50%; in assay [8], 90%.
Regarding `COC(=O)C(OC)c1cccc(COc2ccccc2C)c1` (stereo not drawn), the Activity is on record as 90% in assay [6], 50% in assay [2] and 90% in assay [8].
`CNC(=O)C(OC)c1cccc(COc2ccc(C)c(C)c2)c1` (stereo not drawn): the Activity in assay [2] is 50%; in assay [3], 90%; in assay [8], 90%.
Take `CNC(=O)C(OC)c1cccc(COc2ccccc2C)c1` (stereo not drawn): the Activity in assay [1] is 90%; in assay [7] it was 50%; in assay [5], 90%.
For the compound `CNC(=O)C(OCOC)c1cccc(COc2cc(C)ccc2C)c1` (stereo not drawn), the Activity in assay [4] is given as under 90%; in assay [1], under 90%; in assay [2], under 50%.
With `COC(=O)C(OC)c1cccc(COc2cccc(C)c2C)c1` (stereo not drawn), the Activity in assay [4] is recorded as under 90%; in assay [1] it was 90%; in assay [2], under 50%.
`CNC(=O)C(OC)c1cccc(COc2ccc(Cl)cc2C)c1` (stereo not drawn): the Activity in assay [7] is recorded as 50%; in assay [8] it was 90%; in assay [5], 90%.
Regarding `CNC(=O)C(OC)c1cccc(COc2ccccc2F)c1` (stereo not drawn), the Activity worked out at 90% in assay [1], 50% in assay [2] and 90% in assay [3].
Consider `COC(C(=O)N(C)C)c1cccc(COc2cc(C)ccc2C)c1` (stereo not drawn), for which the Activity in assay [1] is 90%; in assay [6], 90%; in assay [2], under 50%.
For `CNC(=O)C(OC)c1cccc(COc2cccc(Cl)c2)c1` (stereo not drawn), the Activity in assay [1] is on record as under 90%; in assay [2], 50%; in assay [3], 90%.
Take `COC(=O)C(OC)c1cccc(COc2ccccc2)c1` (stereo not drawn): the Activity in assay [1] is under 90%; in assay [6] it was 90%; in assay [2], under 50%.
On to `CCCCNC(=O)C(OC)c1cccc(COc2cc(C)ccc2C)c1` (stereo not drawn), for which the Activity in assay [4] was under 90%; in assay [1], under 90%; in assay [2], under 50%.
On to `COC(=O)C(OC)c1cccc(COc2cc(Cl)cc(Cl)c2)c1` (stereo not drawn), for which the Activity in assay [1] is on record as under 90%; in assay [6], 90%; in assay [2], under 50%.
In the case of `CNC(=O)C(OC)c1cccc(COc2ccc(C)cc2)c1` (stereo not drawn), the Activity is 90% in assay [1], under 50% in assay [2] and 90% in assay [3].
